A word on the CC50: it is the concentration that lowers cell viability or growth by half. The EC50 is the midpoint of the concentration-response curve. A word on the AUC(0-t): it is the area under the concentration-time curve up to a stated or last time point. Low values mean low exposure, high ones high exposure. For orientation: EC90 means the concentration needed for an effect of 90%. As usually defined, the IC50 is the concentration needed to halve the response being measured. A low value points to higher potency.

The results in this text go back to patent publication EP1296995B1, “3'-PRODRUGS OF 2'-DEOXY-BETA-L-NUCLEOSIDES” (priority 2000, dated 2001).

≈ marks a conversion by molar mass, not a printed value. Entries after “also recorded” stand apart in the source; their conditions may differ. Like-named read-outs stand apart in the source and are kept apart here. A value given as a limit tells only on which side of the number the result lay.

Data set [1] concerns WHV. Description: Woodchuck model of chronic hepatitis B infection, 28 days. The class given is in vivo, woodchucks.
The next data set deals with HepG2 cells. The experiment in a line: in vitro. From the text:
(§1) These studies included analysis of lactic acid production, mtDNA content and determination of changes in morphology (e.g., loss of cristae, matrix dissolution and swelling, and lipid droplet formation) of mitochondrial ultrastructure.

The test system of another data set is EBV. Description: Antiviral panel: EBV in Daudi. The format is cell-based.
The test system of data set [2] is WHV. The experiment in a line: Woodchuck model, twelve-week study. The format is in vivo, woodchucks. To be noted: 1 mg/kg/day. The method, then: WHV DNA levels were determined by quantitative PCR.
A further data set relates to HIV-1. To be noted: read-out: EC50 HIV-1 (PBMC).
Data set [3] has as its system Salmonella typhimurium strains TA98, TA100, TA1535, and TA1537 and escherichia coli strain WP2uvrA. The experiment in a line: S. typhimurium and E. coli plate incorporation mutation assay. The format is cell-based. The procedure: L-dC was tested for its potential to cause mutation at the histidine operon of Salmonella typhimurium strains TA98, TA100, TA1535, and TA1537 and at the tryptophan opeton of escherichia coli strain WP2uvrA. L-dC at concentrations of […] plus positive and negative controls were tested. […] After incubation for approximately 68 hours, L-dC and controls were evaluated for the number of revertants per plate and integrity of the background microcolony lawn.

For data set [4] the following is noted: monkey, in vivo, 10 mg/kg.
In data set [5] the test system is HBV. The experiment in a line: Antiviral activity against HBV in 2.2.15 cells (reduction of HBV DNA).
The next data set deals with VZV. The experiment in a line: Antiviral panel: VZV in HFF. The class given is cell-based.
For another data set, the system named is 2.2.15. Description: Cytotoxicity in 2.2.15 cells.
Data set [6] relates to HBV. To be noted: human, 2.2.15 cells.
Data set [7] in a line: in vitro. To be noted: human, hepg2 cells.
Source text: as §1

A short description of data set [8]: in vitro. To be noted: human, bone marrow cfu-gm.
A short description of data set [9]: in vitro. To be noted: human, bone marrow bfu-e.

Turning to `Nc1ccn([C@@H]2C[C@@H](O)[C@H](CO)O2)c(=O)n1` [L-dC, 2'-deoxy-β-L-cytidine], in the data set with WHV [1] (compared to control animals, 28 days 0.01-10 mg/kg/day), the body weight entry was “no weight loss”. Moreover, the toxicity entry with WHV [1] (four-week treatment phase and eight-week follow-up, 0.01-10 mg/kg/day orally) is listed as “no drug-related toxicity; also recorded: No toxicity was observed”; with WHV [2] (12-week treatment phase and 12-week follow-up), “no drug-related toxicity”. The “Lipid Droplet Formation” value in the data set on HepG2 cells is reported as “negative”. For the same compound, the CC50 in the data set on HepG2 cells (HepG2 cells, after 14 days of treatment) was greater than 2 mM; in the data set with 2.2.15 (2.2.15), greater than 2 mM; with 2.2.15 (2.2.15 cells, 50% inhibition of neutral red dye uptake, combination study), 3 ± 0.096 mM. Moreover, the “EC50 EBV (Daudi)” value in the data set on EBV was greater than 50 µg/mL. In addition, the end-of-treatment liver biopsies entry with WHV [2] (12 weeks) is given as “no histomorphological evidence of fatty changes (microvesicular steatosis); also recorded: no evidence of fatty change (microvesicular steatosis)”. Besides, the concentration giving a half-maximal response (EC50) in the data set on HIV-1 was greater than 200 µM. The mutagenicity result in data set [3] (concentrations up to 5000 µg/plate) is reported as “not mutagenic”; in [3] (concentrations up to 5000 mg/plate, with and without rat liver S-9), “no evidence of mutagenicity”. For the same compound, the results for the AUC(0-t) in [4] (iv) and in data set [4] (po) were 81.1 µM·h and 13.7 µM·h, respectively. Moreover, the “S.I. (CC50/EC90)” value with HBV [5] (2.2.15 cells) is recorded as 2,727. Besides, in the data set with HBV [5] (viral rebound after drug withdrawal, 2.2.15 cells), the “HBV replication returned to 50% of pretreatment levels” value is reported as no more than 18 day post-treatment. The “EC50 VZV (HFF)” value in the data set with VZV is listed as 18.6 µg/mL (≈ 81.9 µM).
Turning to `Cc1cn([C@@H]2C[C@@H](O)[C@H](CO)O2)c(=O)[nH]c1=O` [L-dT, β-L-2'-deoxythymidine, reference compound], the EC90 in the data set on HBV [5] (10-fold reduction of HBV virion DNA levels, combination study) came out at 1200 ± 100 nM. Further, the “S.I. (CC50/EC90)” value with HBV [6] is 2,518.
For `Cc1cn([C@H]2C[C@H](N=[N+]=[N-])[C@@H](CO)O2)c(=O)[nH]c1=O` [ZDV, zidovudine], the activity in the data set “in vitro [7]” worked out at 239 ± 34%. Besides, the activity at 336 h in “in vitro [7]” is 119%. The “Lipid Droplet Formation” value with HepG2 cells is “negative”. Further, in the data set with HepG2 cells (human), the “increase of lactic acid production compared to vehicle control” value is listed as 100%. For the same compound, the concentration for half-maximal inhibition (IC50) in “in vitro [8]” stood at 1800 nM; in “in vitro [9]”, 700 nM.
